For one series, the system named is whole blood. The series can be described thus: Hemolysis on addition to whole blood in vitro. The class given is cell-based. To be noted: 50 μl of 5 mg/ml Arbidol added to 950 μl whole blood, 37° C., 20 minutes.
Series [1] can be described thus: Bioaccessibility (pharmacokinetics) after peroral administration in rats. The class given is in vivo. Also noted: area (chromatogram peak), blood: unit not given here. Particulars: 25 mg/kg. On the procedure: 1. The content of an NF Arbidol flask was dissolved in 5 ml. (A) 2. An Arbidol solution was prepared at a concentration of 5 mg/ml (suspension in water). (B) 3. Feed was withdrawn from the animals, leaving them water only, 24 hours before the experiment, and the animals were weighed on the day of the experiment. 4. 1 ml of solution A and B was administered perorally to the rats. 5. Blood was collected at intervals of 5, 10, 15, 30, and 45 minutes into eppendorfs containing EDTA. After an eppendorf was filled, it was shaken intensively. 6. Blood treatment: 900 μl of methanol was added to 100 μl of blood and agitated intensively for 3 to 5 minutes. The mixture was centrifuged to cause sedimentation of proteins. It was then analyzed by high-performance liquid chromatography for presence of Arbidol in the samples.
The dose administered was 25 mg/kg.

For series [2] the following is noted: cited from earlier work.
For series [3] the following is noted: used internally; cited from earlier work.
The mark [4] stands for this setting: 10 minutes after administration.
The mark [5] stands for this setting: 15 minutes after administration.
The mark [6] stands for this setting: 30 minutes after administration.

“Also recorded” adds a separate entry of the source. Structures can show the parent of a compound that is named as a salt.

For `CCOC(=O)c1c(CSc2ccccc2)n(C)c2cc(Br)c(O)c(CN(C)C)c12` [Arbidol, ethyl ester of 6-bromo-5-hydroxy-1-methyl-4-dimethylaminomethyl-2-phenylthiomethylindole-3-carbonic acid hydrochloride monohydrate], in the series with whole blood, the “Hemolysis if added to whole blood” value is reported as “causes hemolysis”. Also, the “area (chromatogram peak), blood” value is reported as 0/0 in series [1] (5 minutes after administration), 1.2 in series [1] (setting [4]), 7.69 in series [1] (setting [5]) and 1.6 in series [1] (setting [6]). Further, the concentration in blood was 0/0 μg/ml in series [1] (5 minutes after administration), 0.3 µg/mL in series [1] (setting [4]), 2.4 µg/mL in series [1] (setting [5]) and 0.4 µg/mL in series [1] (setting [6]). Further, the solubility in ethanol result in series [2] (ethanol) is on record as “dissolved only slightly in ethanol”. In addition, in series [2] (water, hydrochloride monohydrate), the solubility in water result is reported as “practically insoluble in water; also recorded: not soluble in water; also recorded: not dissolved in water”. For the same compound, in series [3], the T1/2 entry is “approximately 17 hours”.

(Values after patent US20120052099A1, “PHARMACEUTICAL COMPOSITION CONTAINING ARBIDOL IN THE FORM OF PHOSPHOLIPID NANOPARTICLES” (priority 2009, published 2012).)
